Test results reported in patent US12421254B2, “KRAS modulators and uses thereof” (Quanta Therapeutics, Inc., priority 2023, dated 2025).

Columns and labels:
[1] = target: GST-tagged KRAS-G12D (2-169) (Homo sapiens, UniProt P01116, G12D); experiment: Nucleotide exchange assay (NEA), SOS-mediated, HTRF, KRAS G12D; assay type: biochemical; settings: Table 4; IC50 extracted at 30 min; 20 nM SOScat; read-out: NEA G12D IC50
Summary of the method: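 Compound preincubated 1 h at RT with 0.25 nM GST-KRAS-G12D (2-169) and anti-GST Tb donor, then 20 nM SOS1cat (564-1049) and 150 nM GTP-DY-647P1 added; pH 7.3 HEPES buffer with MgCl2 and DTT. HTRF monitored at RT; % inhibition versus DMSO and no-SOS blank, 4-parameter IC50 taken at 30 min.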

[2] = target: GST-tagged KRAS-G12V (2-169) (Homo sapiens, UniProt P01116, G12V); experiment: Nucleotide exchange assay (NEA), SOS-mediated, HTRF, KRAS G12V; assay type: biochemical; settings: Table 4; IC50 extracted at 90 min; 80 nM SOS
Sequence of GST-tagged KRAS-G12V (2-169) (P01116 2-169 isoform P01116-2 G12V): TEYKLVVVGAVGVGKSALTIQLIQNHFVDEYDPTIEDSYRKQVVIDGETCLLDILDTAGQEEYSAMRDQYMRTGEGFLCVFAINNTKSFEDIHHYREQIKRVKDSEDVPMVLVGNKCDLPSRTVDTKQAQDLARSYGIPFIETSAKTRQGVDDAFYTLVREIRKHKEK
Summary of the method: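 GST-KRAS-G12V (2-169), 0.25 nM, pre-incubated 1 h at RT with compound, then SOS1cat (564-1049) 80 nM and GTP-DY-647P1 150 nM added in HEPES pH 7.3 buffer with MgCl2 and DTT. HTRF via anti-GST Tb cryptate read over 90 min; IC50 from 4-parameter fit at 90 min, blanked to no-SOS reactions.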

[3] = tested on: phospho-ERK in GP2D (KRAS-G12D) cells; experiment: pERK In Cell Western (ICW) assay (Method B), GP2D; assay type: cell-based; settings: GP2d, 3 h, Table 4
Summary of the method: (§1)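 Here IC50 reflects phospho-ERK suppression after 3 h compound exposure at 37 °C in cells grown in 10% FBS medium. Signal is normalized to DRAQ5 DNA stain and to blank control wells.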

[4] = tested on: phospho-ERK in SW620 (KRAS-G12V) cells; experiment: pERK In Cell Western (ICW) assay (Method B), SW620; assay type: cell-based; settings: Homo sapiens, SW-620, 3 h, Table 4
Summary of the method: as §1

Sequence of GST-tagged KRAS-G12D (2-169) (P01116 2-169 isoform P01116-2 G12D): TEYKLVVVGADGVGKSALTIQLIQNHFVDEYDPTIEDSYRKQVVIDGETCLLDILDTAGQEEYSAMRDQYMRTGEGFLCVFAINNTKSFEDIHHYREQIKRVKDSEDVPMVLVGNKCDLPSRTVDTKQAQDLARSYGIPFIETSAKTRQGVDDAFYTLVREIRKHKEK

C[C@H](c1cccnc1N)N(C)c1nc(OC[C@@]23CCCN2C[C@H](F)C3)nc(N2CC3(CCCc4sc(N)c(C#N)c43)C2)n1 [Compound 163, 2-amino-1′-[4-[[(1R)-1-(2-amino-3-pyridyl)ethyl]-methyl-amino]-6-[[(2R,8S)-2-fluoro-1,2,3,5,6,7-hexahydropyrrolizin-8-yl]methoxy]-1,3,5-triazin-2-yl]spiro[6,7-dihydro-5H-benzothiophene-4,3′-azetidine]-3-carbonitrile]
IC50 [1]: < 10 nM | IC50 [2]: < 10 nM | IC50 [3]: < 10 nM | IC50 [4]: < 10 nM

CCN(c1nc(OCCN2CCCCC2)nc(N2CC3(C2)SCc2sc(N)c(C#N)c23)n1)[C@H](C)c1cccnc1N [Compound 178, 2-amino-1′-[4-[[(1R)-1-(2-amino-3-pyridyl)ethyl]-ethyl-amino]-6-[2-(1-piperidyl)ethoxy]-1,3,5-triazin-2-yl]spiro[6H-thieno[3,4-b]thiophene-4,3′-azetidine]-3-carbonitrile]
IC50 [1]: 10 to 100 nM | IC50 [2]: < 10 nM | IC50 [3]: 100 to 1000 nM | IC50 [4]: 10 to 100 nM

CCN(c1nc(OC[C@@H]2CC(F)(F)CN2C)nc(N2CC3(C2)SCc2sc(N)c(C#N)c23)n1)[C@H](C)c1cccnc1N [Compound 176, 2-amino-1′-[4-[[(1R)-1-(2-amino-3-pyridyl)ethyl]-ethyl-amino]-6-[[(2S)-4,4-difluoro-1-methyl-pyrrolidin-2-yl]methoxy]-1,3,5-triazin-2-yl]spiro[6H-thieno[3,4-b]thiophene-4,3′-azetidine]-3-carbonitrile]
IC50 [1]: 100 to 1000 nM | IC50 [2]: < 10 nM | IC50 [3]: 1000 to 20000 nM | IC50 [4]: 10 to 100 nM

N#Cc1c(N)sc2c1C1(CC2)CN(c2nc(OC[C@@]34CCCN3C[C@H](F)C4)nc(N3CCCC4(CC(=O)N4)C3)n2)C1 (stereo partly drawn) [Compound 130, 2-amino-1′-[4-[[(2R,8S)-2-fluoro-1,2,3,5,6,7-hexahydropyrrolizin-8-yl]methoxy]-6-(2-oxo-1,8-diazaspiro[3.5]nonan-8-yl)-1,3,5-triazin-2-yl]spiro[5,6-dihydrocyclopenta[b]thiophene-4,3′-azetidine]-3-carbonitrile]
IC50 [1]: < 10 nM | IC50 [2]: < 10 nM | IC50 [3]: 100 to 1000 nM | IC50 [4]: 1000 to 20000 nM

CC(c1cccnc1O)N(C)c1nc(OC[C@@]23CCCN2C[C@H](F)C3)nc(N2CC3(CCc4sc(N)c(C#N)c43)C2)n1 (stereo partly drawn) [Compound 138, 2-amino-1′-[4-[[(2R,8S)-2-fluoro-1,2,3,5,6,7-hexahydropyrrolizin-8-yl]methoxy]-6-[1-(2-hydroxy-3-pyridyl)ethyl-methyl-amino]-1,3,5-triazin-2-yl]spiro[5,6-dihydrocyclopenta[b]thiophene-4,3′-azetidine]-3-carbonitrile]
IC50 [1]: 100 to 1000 nM | IC50 [2]: 1000 to 20000 nM | IC50 [3]: 1000 to 20000 nM | IC50 [4]: 1000 to 20000 nM

N#Cc1c(N)sc2c1C1(CC2)CN(c2nc(OC[C@@]34CCCN3C[C@H](F)C4)nc(N(CCO)Cc3ccc[nH]c3=O)n2)C1 [Compound 136, 2-amino-1′-[4-[[(2R,8S)-2-fluoro-1,2,3,5,6,7-hexahydropyrrolizin-8-yl]methoxy]-6-[2-hydroxyethyl-[(2-oxo-1H-pyridin-3-yl)methyl]amino]-1,3,5-triazin-2-yl]spiro[5,6-dihydrocyclopenta[b]thiophene-4,3′-azetidine]-3-carbonitrile]
IC50 [1]: 100 to 1000 nM | IC50 [2]: 100 to 1000 nM | IC50 [3]: 1000 to 20000 nM | IC50 [4]: 1000 to 20000 nM

C[C@@]1(O)C[C@@H](F)CN(c2nc(OC[C@@]34CCCN3C[C@H](F)C4)nc(N3CC4(C3)SCc3sc(N)c(C#N)c34)n2)C1 [Compound 123, 2-amino-1′-[4-[[(2R,8S)-2-fluoro-1,2,3,5,6,7-hexahydropyrrolizin-8-yl]methoxy]-6-[(3R,5R)-5-fluoro-3-hydroxy-3-methyl-1-piperidyl]-1,3,5-triazin-2-yl]spiro[6H-thieno[3,4-b]thiophene-4,3′-azetidine]-3-carbonitrile]
IC50 [1]: < 10 nM | IC50 [2]: < 10 nM | IC50 [3]: 10 to 100 nM | IC50 [4]: 100 to 1000 nM

CC(c1ccns1)N(C)c1nc(OC[C@@]23CCCN2C[C@H](F)C3)nc(N2CC3(CCc4sc(N)c(C#N)c43)C2)n1 (stereo partly drawn) [Compound 158, 2-amino-1′-[4-[[(2R,8S)-2-fluoro-1,2,3,5,6,7-hexahydropyrrolizin-8-yl]methoxy]-6-[1-isothiazol-5-ylethyl(methyl)amino]-1,3,5-triazin-2-yl]spiro[5,6-dihydrocyclopenta[b]thiophene-4,3′-azetidine]-3-carbonitrile]
IC50 [1]: 100 to 1000 nM | IC50 [2]: < 10 nM | IC50 [3]: 1000 to 20000 nM | IC50 [4]: 100 to 1000 nM

N#Cc1c(N)sc2c1C1(CC2)CN(c2nc(OCC3(CN4CCOCC4)CC3)nc(N3CCCCC(C#N)C3)n2)C1 (stereo not shown) [Compound 86, 2-amino-1′-[4-(3-cyanoazepan-1-yl)-6-[[1-(morpholinomethyl)cyclopropyl]methoxy]-1,3,5-triazin-2-yl]spiro[5,6-dihydrocyclopenta[b]thiophene-4,3′-azetidine]-3-carbonitrile]
IC50 [1]: 10 to 100 nM | IC50 [2]: 10 to 100 nM | IC50 [3]: 100 to 1000 nM | IC50 [4]: 1000 to 20000 nM

CN(Cc1nsnc1N)c1nc(OC[C@@]23CCCN2C[C@H](F)C3)nc(N2CC3(CCc4sc(N)c(C#N)c43)C2)n1 [Compound 166, 2-amino-1′-[4-[(4-amino-1,2,5-thiadiazol-3-yl)methyl-methyl-amino]-6-[[(2R,8S)-2-fluoro-1,2,3,5,6,7-hexahydropyrrolizin-8-yl]methoxy]-1,3,5-triazin-2-yl]spiro[5,6-dihydrocyclopenta[b]thiophene-4,3′-azetidine]-3-carbonitrile]
IC50 [1]: 10 to 100 nM | IC50 [2]: < 10 nM | IC50 [3]: 100 to 1000 nM | IC50 [4]: 10 to 100 nM

CC(C#N)N(CC(F)F)c1nc(OC[C@@]23CCCN2C[C@H](F)C3)nc(N2CC3(C2)SCc2sc(N)c(C#N)c23)n1 (stereo partly drawn) [Compound 258, 2-amino-1′-[4-[1-cyanoethyl(2,2-difluoroethyl)amino]-6-[[(2R,8S)-2-fluoro-1,2,3,5,6,7-hexahydropyrrolizin-8-yl]methoxy]-1,3,5-triazin-2-yl]spiro[6H-thieno[2,3-c]thiophene-4,3′-azetidine]-3-carbonitrile]
IC50 [1]: < 10 nM | IC50 [2]: < 10 nM | IC50 [3]: 10 to 100 nM | IC50 [4]: 10 to 100 nM

CCN(c1nc(OC[C@@H]2CCCN2C)nc(N2CC3(C2)SCc2sc(N)c(C#N)c23)n1)[C@H](C)c1cccnc1N [Compound 207, 2-amino-1′-[4-[[(1R)-1-(2-amino-3-pyridyl)ethyl]-ethyl-amino]-6-[[(2S)-1-methylpyrrolidin-2-yl]methoxy]-1,3,5-triazin-2-yl]spiro[6H-thieno[3,4-b]thiophene-4,3′-azetidine]-3-carbonitrile]
IC50 [1]: < 10 nM | IC50 [2]: < 10 nM | IC50 [3]: 10 to 100 nM | IC50 [4]: 10 to 100 nM

C=C1CN2CCCC2(COc2nc(N3CC4(CCc5sc(N)c(C#N)c54)C3)nc(N3CCC[C@@](C)(O)C3)n2)C1 (stereo partly drawn) [Compound 55, 2-amino-1′-[4-[(3R)-3-hydroxy-3-methyl-1-piperidyl]-6-[(6-methylene-2,3,5,7-tetrahydro-1H-pyrrolizin-8-yl)methoxy]-1,3,5-triazin-2-yl]spiro[5,6-dihydrocyclopenta[b]thiophene-4,3′-azetidine]-3-carbonitrile]
IC50 [1]: < 10 nM | IC50 [2]: < 10 nM | IC50 [3]: 10 to 100 nM | IC50 [4]: 100 to 1000 nM

CC(c1nonc1N)N(C)c1nc(OC[C@@]23CCCN2C[C@H](F)C3)nc(N2CC3(CCc4sc(N)c(C#N)c43)C2)n1 (stereo partly drawn) [Compound 156, 2′-amino-1-(4-((1-(4-amino-1,2,5-oxadiazol-3-yl)ethyl)(methyl)amino)-6-(((2R,7aS)-2-fluorotetrahydro-1H-pyrrolizin-7a(5H)-yl)methoxy)-1,3,5-triazin-2-yl)-5′,6′-dihydrospiro[azetidine-3,4′-cyclopenta[b]thiophene]-3′-carbonitrile]
IC50 [1]: 100 to 1000 nM | IC50 [2]: < 10 nM | IC50 [3]: 1000 to 20000 nM | IC50 [4]: 10 to 100 nM

N#Cc1c(N)sc2c1C1(CC2)CN(c2nc(OCC3(CN4CCOCC4)CC3)nc(N3CCCC(O)(C(F)F)C3)n2)C1 (stereo not shown) [Compound 106, 2-amino-1′-[4-[3-(difluoromethyl)-3-hydroxy-1-piperidyl]-6-[[1-(morpholinomethyl)cyclopropyl]methoxy]-1,3,5-triazin-2-yl]spiro[5,6-dihydrocyclopenta[b]thiophene-4,3′-azetidine]-3-carbonitrile]
IC50 [1]: 10 to 100 nM | IC50 [2]: 10 to 100 nM | IC50 [3]: 100 to 1000 nM | IC50 [4]: 1000 to 20000 nM

CCN(c1nc(OC[C@@]23CCCN2C[C@H](F)C3)nc(N2CC3(C2)SCc2sc(N)c(C#N)c23)n1)C(C)c1nonc1N (stereo partly drawn) [Compound 171, 2-amino-1′-[4-[1-(4-amino-1,2,5-oxadiazol-3-yl)ethyl-ethyl-amino]-6-[[(2R,8S)-2-fluoro-1,2,3,5,6,7-hexahydropyrrolizin-8-yl]methoxy]-1,3,5-triazin-2-yl]spiro[6H-thieno[2,3-c]thiophene-4,3′-azetidine]-3-carbonitrile]
IC50 [1]: 10 to 100 nM | IC50 [2]: < 10 nM | IC50 [3]: 10 to 100 nM | IC50 [4]: < 10 nM
